Laboratory results published in patent US9624167B2, “N-(4-hydroxy-4-methyl-cyclohexyl)-4-phenyl-benzenesulfonamides and N-(4-hydroxy-4-methyl-cyclohexyl)-4-(2-pyridyl)benzenesulfonamides and their therapeutic use” (PIMCO 2664 LIMITED, priority 2013, dated 2017).
Values after ≈ are worked out from the molar mass of the structure shown. Where two headings read alike, the source gives them in different places.

Columns and labels:
[1] = biological target: T1, hERG (Homo sapiens, UniProt Q12809); experiment: hERG Ion Channel Assay (Q-patch, hERG-CHO cells); type: cell-based; details: human, CHO cells stably transfected with hERG (hERG-CHO), pH 7.4, 30 μM, hERG tail current
T1 construct: expressed in transfected cells; host or cells: Chinese Hamster Ovary cells (hERG-CHO), stably transfected
Procedure: (§1) The activity of the compounds against the hERG ion channel was tested. The assay was conducted using the automated path-clamp, Q-patch method using stably transfected Chinese Hamster Ovary cells (hERG-CHO). hERG-CHO cells were cultured in F-12 Kaighn's Nutrient Mixture medium (Invitrogen)+10% FBS at 37° C. for 1-3 days. Cells were kept at 30° C. for 24 to 48 hours prior to patch clamping in order to increase the hERG current amplitude. Subsequently, the cells were harvested by trypsinisation, and kept in Serum Free Medium (SFM) in the Q-patch cell preparation state for up to 6 hours at room temperature before being washed and re-suspended in extracellular solution and applied to the patch clamp sites for data recording.
(§2) Patch-clamp voltage protocol: After whole cell configuration was achieved, the cell was held at −80 mV. A 50 millisecond pulse to −40 mV was delivered to measure the leaking current, which was subtracted from the tail current on-line. Then the cell was depolarized to +20 mV for 2 seconds, followed by a one second pulse to −40 mV to reveal hERG tail current. This paradigm was delivered once every 5 seconds to monitor the current amplitude.
(§3) Extracellular solution: 137 mM NaCl, 4 mM KCl, 1.8 mM CaCl2, 1 mM MgCl2, 10 mM D(+)-glucose, 10 mM HePES buffer (pH adjusted to 7.4 with NaOH).
(§4) After the whole cell configuration was achieved, the extracellular solution (control) was applied first and the cell was stabilized for 2 minutes in extracellular solution. The test compound was then applied from low concentrations to high concentrations cumulatively. The cell was incubated with each test concentration for 5 minutes. During each incubation, the cell was repetitively stimulated using the voltage protocol described above, and the tail current amplitude was continuously monitored.
(§5) • (1) Peak tail current >100 pA in control. • (2) Initial run-down <30% and the run-down stops before first application of the test compound. • (3) Leak currents <50% of the control peak tail currents at any time. • (4) rs<20 MΩ throughout the experiment.
(§6) The degree of inhibition (%) was obtained by measuring the tail current amplitude, induced by a one second test pulse to −40 mV after a two second pulse to +20 mV, before and after incubation with the test compound. The difference in current was normalized to control and multiplied by 100 in order to obtain the percent inhibition.
(§7) Concentration (log) response curves were fitted to a logistic equation (three parameters assuming complete block of the current at very high test compound concentrations) to generate estimates of the 50% inhibitory concentration (IC50). The concentration-response relationship of each compound was constructed from the percentage reductions of current amplitude by sequential concentrations.

[2] = Aqueous (FaSSIF) solubility; type: physicochemical; details: fasted state simulated intestinal fluid (FaSSIF); for solubility: pH 6.8, two replicates, read-out: Solubility (2)
Procedure: Solubility was measured by equilibration of the compound in fasted state simulated intestinal fluid (FaSSIF) and quantified by high-performance liquid chromatography (HPLC).
Aqueous solubility was measured by equilibration of compounds with fasted state simulated intestinal fluid (FaSSIF) and quantified spectrophotometrically.
FaSSIF was prepared as described below:
Preparation of blank FaSSIF: 0.21 g of sodium hydroxide (NaOH) pellets, 1.97 g of dihydrogen sodium phosphate (NaH2PO4.2H2O) and 3.09 g of sodium chloride (NaCl) were dissolved in 400 mL of deionised water. […]
Preparation of FaSSIF: 0.056 g of SIF Powder (containing sodium taurocholate and lecithin) (Phares AG) was dissolved in 25 mL of blank FaSSIF and stirred until the powder was completely dissolved. The solution was allowed to stand for 2 hours during which it became opalescent; it was used within 24 hours. The final solution composition was characterised as follows: • Sodium taurocholate: 3 mM • Lecithin: 0.75 mM • Osmolarity: 270±10 mOsmol • pH: 6.5
The optical density was measured at the end of the incubation period for test compounds and a reference used to determine solubility. In brief, two samples were prepared for each determination: a reference sample consisting of a stock solution of test compound in DMSO diluted in system solution (a phosphate free, low absorption buffer) and propanol; and a test sample (prepared in triplicate) consisting of 0.5 mL FaSSIF spiked with test compound at 0.2 mM. Each sample was incubated at room temperature for 16 hours with constant shaking at 250 rpm. At the end of the incubation period, 0.3 mL of each sample was filtered through a pION filter plate (PION, Woburn Mass.), diluted 1:1 with propanol and scanned using UV spectrophotometry at λmax ([…]) using a Spectra Max Plus—Version 2.1000 (Molecular Devices, Sunnyvale, Calif.), with μSOL Explorer solubility determination software (pION, Woburn, Mass.).
FaSSIF solubility was calculated using the following formula:
[formula] wherein: • “OD” is the optical density; • “Cr” is the concentration of the reference (33.4 μM); and • “molecular weight” is for the test compound (e.g., 381.44 for ABD735).

[3] = biological target: T2, hERG ion channel (Homo sapiens, UniProt Q12809); experiment: hERG Ion Channel Assay (Q-patch, hERG-CHO cells); type: cell-based; details: hERG tail current, hERG-CHO cells, Q-patch; read-out: IC50 (1)
T2 construct: expressed in transfected cells; host or cells: Chinese Hamster Ovary cells (hERG-CHO), stably transfected
Procedure: as §1, §2, §3, §4, §5, §6, §7

[4] = tested on: J774 macrophages; experiment: Resazurin Macrophage J774 Viability Assay; type: cell-based; details: Mus musculus, 6 point concentration range 10 μM to 10 nM, n = 3 replicates, mean of 2 independent experiments, 72 hour incubation, read-out: IC50 (1)
Procedure: Potency was assessed using a viability assay based on the survival of the J774 macrophage cell line. Macrophages are closely related to osteoclasts and have been used previously as a model system for osteoclast survival (see, e.g., Luckman et al., 1998, “Heterocycle-containing bisphosphonates cause apoptosis and inhibit bone resorption by preventing protein prenylation: evidence from structure-activity relationships in J774 macrophages,” J. Bone Miner. Res., Vol. 13, pp. 1668-1678). The model is indicative both of effects on bone protection in diseases such as osteoporosis, osteoarthritis and rheumatoid arthritis, and of effects on inflammation since, like osteoclasts, J774 macrophages are dependent for survival on continued NFκB activation.
In vitro potency of test compounds was determined by incubation with J774 macrophages and subsequent determination of cell viability using resazurin.
Resazurin is a redox dye commonly used as an indicator of viability in cultured cells (see, e.g., Anoopkumar-Dukie, 2005, British Journal of Radiology, Vol. 78, pp. 945-947). It is non-toxic to cells and stable in culture medium, allowing continuous measurement of cell proliferation in vitro as either a kinetic or endpoint assay. The assay is based on the ability of viable, metabolically-active cells to reduce resazurin (which is blue and non-fluorescent) to resorufin and dihydroresorufin (which are red and fluorescent) using electrons from reducing species, such as nicotinamide adenine dinucleotide (NADPH) and flavin adenine dinucleotide (FADH). This transformation, from oxidised form to reduced form, can be measured either colorimetrically or fluorometrically. Insults that impair cell viability and proliferation also affects the capacity of cells to reduce resazurin, and the rate of dye reduction is directly proportional to the number of viable cells present.
For fluorescence measurements, 530-560 nm excitation and 590 nm emission wavelengths are typically used. For colorimetric measurements, absorbance at 570 nm (reduced form) and 600 nm (oxidised form) is typically measured. A simple calculation is performed to determine the relative quantities of the two species: a high ratio of resorufin (the reduced form) to resazurin (the oxidised form) is an indicator that cells are proliferating and viable. A low ratio indicates cells that are quiescent or non-viable.
J774 cells were plated at 10^4 cells per well in 100 μL αMEM (α Modified Eagle Medium) in 96-well plates and allowed to adhere overnight. The following day, test compounds were prepared as 100 mM solutions in DMSO. These stock solutions were diluted in DMSO and then diluted 1000× in culture medium (αMEM) before being added directly to the wells so as to give the desired final compound concentration. After a 72 hour incubation at 37° C./5% CO2, resazurin (Alamar Blue, Biosource International) was added to each well (1:10 v/v, 10 μL). The plate was then incubated at 37° C. for 3 hours and fluorescence was measured at 590 nm, with a 25 nm bandwidth.
The average results for each test compound were expressed as a percent (%) of the average control value reflecting cell viability. The average values across the concentrations tested were then plotted and the IC50 for was calculated by fitting the data to a 4-parameter IC50 equation using software from Grafit (Erithacus Software). Each experiment was repeated twice and the data are presented as the mean IC50 from both experiments.

[5] = Human Liver Microsomal Stability; type: in vitro ADME; details: both sexes, pooled liver microsomes, pH 7.4, human liver microsomes 0.5 mg/mL protein, 1 μM compound, 6 time points 0-60 min, two replicates, read-out: T1/2 (2)
Procedure: Metabolic stability was measured by determining the rate of disappearance of compound in the presence of human liver microsomal preparations, as quantified by liquid chromatography mass-spectrometry and […] mass-spectrometry (LC-MS/MS).
Metabolic stability of test compounds was measured by determination of the rate of disappearance of the compound when incubated in the presence of human liver microsomes. Liver microsomes are prepared from the endoplasmic reticulum of hepatocytes and are the primary source of the most important enzymes (cytochrome P450s) involved in drug metabolism. Study of drug stability in the presence of liver microsomes is accepted as a valuable model permitting rapid prediction of in vivo drug stability.
Human liver microsomes were obtained from a commercial source. Test compounds (1 μM) were incubated with pooled liver microsomes (male and female). Samples were incubated for a 60 minute period and removed at up to 6 time points and analysed by LC-MS/MS for the presence/amount of test compounds.
Microsomes (final protein concentration 0.25 or 0.5 mg/mL), 0.1 M phosphate buffer pH 7.4, and test compound (final concentration 1 μM; diluted from 10 mM stock solution to give a final DMSO concentration of 0.1%) were incubated at 37° C. prior to the addition of Nicotinamide adenine dinucleotide phosphate (NADPH, final concentration 1 mM) to initiate the reaction. The final incubation volume was 100 μL. A control incubation was included for each compound tested, where 0.1 M phosphate buffer pH 7.4 was added instead of NADPH. […]
Each compound was incubated for 0, 5, 15, 30, 45 or 60 minutes. The reactions were stopped by the addition of 100 μL ice-cold acetonitrile containing internal standard (0.001 mM glipizide) at the appropriate time points. The incubation plates were centrifuged at 4000 rpm for 15 minutes at 4° C. to precipitate the protein and 0.1 mL aliquots were analysed using LC-MS/MS, with the conditions shown in the following table.
From a plot of the natural logarithm of the peak area ratio (i.e., the ratio of compound peak area:internal standard peak area) against time, the gradient of the line was determined.

[6] = tested on: IL-6 release from LPS-stimulated Thp1 macrophages; experiment: Thp1 Macrophage IL-6 Release Assay; type: cell-based; details: Homo sapiens, THP-1, 1.7 × 10^5 cells/well, 96-well plates, 3 days, 9 point curve, IL6 measured 18 hours after LPS, read-out: IC50 (2)
From the text: Anti-inflammatory effects were further characterised by assessing the production of interleukin-6 (IL-6) by human Thp-1 derived macrophages stimulated with a pro-inflammatory stimulus bacterial lipopolysaccharide (LPS). LPS acts with a cell-surface receptor, Toll-like receptor-4 to activate the NFκB and IRF signalling pathways to produce IL-6. The reduction of IL—in this stimulated assay is indicative of anti-inflammatory effects with utility in the treatment of conditions in which IL-6 production is aberrant.
In vitro potency of test compounds in human cells was determined by incubation with Thp1 macrophages and subsequent stimulation with an inflammatory stimulus (bacterial lipopolysaccharide (LPS)) followed by measurement of cellular interleukin-6 (IL-6) release.
Thp1 cells were plated at a concentration of 1×10^5 cells/well or 1.7×10^5 cells/well in 500 μL or 150 μL RPMI complete media containing 1% penicillin-streptomycin and 10% heat inactivated foetal bovine serum in 24-well plates or 96-well plates, respectively and allowed to adhere overnight. The following day, the cells were stimulated with phorbol myristic acid (PMA) at a final concentration of 100 nM (24-well plates) or 200 nM (96-well plates) to induce differentiation and maintained for up to 8 days with a medium change at 5 days if cells were cultured to 8 days. Test compounds were prepared as […] solutions in DMSO and then serially diluted in DMSO prior to dilution in culture medium.
The diluted compounds were added to the cultures 1 hour prior to stimulation with 100 ng/mL LPS. Following a 16 or 18 hour incubation at 37° C./5% CO2, the cell culture medium was collected and assayed for human IL-6 levels using the human IL-6 duo-set ELISA kit (R&D Systems). The average results for each test compound (n=3) were expressed as a percent (%) of the average control value. The average values across the concentrations tested were then plotted and the IC50 for the inhibition of IL-6 was calculated by fitting the data to a 4-parameter IC50 equation using software from Grafit version 6.0.12 (Erithacus Software Ltd., by Dr Robin Leatherbarrow) or GraphPad Prism version 5.04 for Windows (GraphPad Software, La Jolla, Calif., USA, www.qraphpad.com). Each experiment was repeated twice and the data are presented as the mean IC50 from both experiments.

[7] = tested on: J774 macrophages; experiment: Resazurin Macrophage J774 Viability Assay; type: cell-based; details: Mus musculus, 12 point concentration range 10 μM to 0.5 nM, n = 4 replicates, mean of 3 independent experiments, 72 hour incubation, read-out: IC50 (2)

T1 sequence (Q12809 whole entry): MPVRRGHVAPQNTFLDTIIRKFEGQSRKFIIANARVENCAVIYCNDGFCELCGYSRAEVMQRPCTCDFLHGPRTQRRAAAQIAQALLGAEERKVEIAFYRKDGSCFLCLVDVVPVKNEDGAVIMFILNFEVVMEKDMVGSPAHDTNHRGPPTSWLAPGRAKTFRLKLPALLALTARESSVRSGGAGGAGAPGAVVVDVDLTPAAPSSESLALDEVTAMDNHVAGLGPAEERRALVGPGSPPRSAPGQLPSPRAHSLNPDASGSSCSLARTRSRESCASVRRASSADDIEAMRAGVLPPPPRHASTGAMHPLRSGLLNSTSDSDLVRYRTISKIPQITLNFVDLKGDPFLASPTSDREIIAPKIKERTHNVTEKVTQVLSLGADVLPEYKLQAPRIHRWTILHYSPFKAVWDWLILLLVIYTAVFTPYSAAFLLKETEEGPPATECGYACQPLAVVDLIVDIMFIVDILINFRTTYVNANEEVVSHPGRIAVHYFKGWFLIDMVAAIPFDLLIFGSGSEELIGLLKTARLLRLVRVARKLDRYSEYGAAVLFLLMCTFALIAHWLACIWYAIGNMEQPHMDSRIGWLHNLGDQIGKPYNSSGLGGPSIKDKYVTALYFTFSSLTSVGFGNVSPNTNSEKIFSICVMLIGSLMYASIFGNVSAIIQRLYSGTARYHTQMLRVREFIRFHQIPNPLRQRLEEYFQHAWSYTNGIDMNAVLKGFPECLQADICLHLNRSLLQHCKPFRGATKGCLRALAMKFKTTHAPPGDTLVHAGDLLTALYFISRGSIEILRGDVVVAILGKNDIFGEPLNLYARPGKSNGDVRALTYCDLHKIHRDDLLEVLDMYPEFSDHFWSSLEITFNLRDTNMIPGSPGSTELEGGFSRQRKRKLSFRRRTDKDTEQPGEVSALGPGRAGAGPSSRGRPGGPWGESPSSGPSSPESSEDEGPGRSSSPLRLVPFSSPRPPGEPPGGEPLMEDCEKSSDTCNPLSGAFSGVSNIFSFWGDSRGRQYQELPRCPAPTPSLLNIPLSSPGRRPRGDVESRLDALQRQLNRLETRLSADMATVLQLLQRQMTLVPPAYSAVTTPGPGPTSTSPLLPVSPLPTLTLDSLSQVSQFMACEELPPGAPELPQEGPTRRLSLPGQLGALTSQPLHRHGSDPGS
T2 sequence (Q12809 whole entry): as above

| solubility at 16 h ([2]; kinetic from dmso stock, pH 6.5, three replicates, 16 hours, read-out: Solubility (1)) [µg/mL] | half-life at 1 μM [5] [h] | solubility [2] [µg/mL] | IC50 [6] [nM] | Structure (SMILES) | inhibition at 5 min, 30 µM [1] [%] | IC50 [3] [nM] | IC50 [4] [nM] | IC50 [7] [nM] |
| --- | --- | --- | --- | --- | --- | --- | --- | --- |
| – | – | – | – | C[C@]1(O)CC[C@@H](NS(=O)(=O)c2ccc(-c3ncc(Cl)cc3Cl)c(F)c2)CC1 [HMC-N-04-B] | 60 | – | – | – |
| 30 (≈ 81.7 µM) | – | – | – | O=S(=O)(N[C@H]1CC[C@H](O)CC1)c1ccc(-c2ccc(F)cc2F)cc1 [ABD599, reference compound] | 85 | 4900 | 190 | – |
| – | 4 | 110 (≈ 283 µM) | 190 | C[C@]1(O)CC[C@H](NS(=O)(=O)c2ccc(-c3ccc(C#N)cc3F)cc2)CC1 [HMC-C-06-A, 4′-Cyano-2′-fluoro-N-((1r,4r)-4-hydroxy-4-methylcyclohexyl)-[1,1′-biphenyl]-4-sulfonamide] | – | – | – | 710 |
| – | 2.05 | 190 (≈ 489 µM) | 1020 | C[C@]1(O)CC[C@H](NS(=O)(=O)c2ccc(-c3ccc(F)cc3C#N)cc2)CC1 [HMC-C-05-A, 2′-Cyano-4′-fluoro-N-((1r,4r)-4-hydroxy-4-methylcyclohexyl)-[1,1′-biphenyl]-4-sulfonamide] | – | – | – | 2460 |
